Measurements published in ChEMBL document CHEMBL1201862, “PubChem BioAssay data set” (2004).
Active and inactive are the calls of the source.

Experiments:
[1] = target: T1, Short transient receptor potential channel 4 (Mus musculus, UniProt Q9QUQ5); assay: mouse TRPC4 channel inhibitors, dose response, cell-based, HEK293 TRPC4/mu-opioid, Fluo-4 calcium (AID 434942); format: functional;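 also: potency of inhibitors blocking the TRPC4 calcium response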
T1 sequence (Q9QUQ5 whole entry): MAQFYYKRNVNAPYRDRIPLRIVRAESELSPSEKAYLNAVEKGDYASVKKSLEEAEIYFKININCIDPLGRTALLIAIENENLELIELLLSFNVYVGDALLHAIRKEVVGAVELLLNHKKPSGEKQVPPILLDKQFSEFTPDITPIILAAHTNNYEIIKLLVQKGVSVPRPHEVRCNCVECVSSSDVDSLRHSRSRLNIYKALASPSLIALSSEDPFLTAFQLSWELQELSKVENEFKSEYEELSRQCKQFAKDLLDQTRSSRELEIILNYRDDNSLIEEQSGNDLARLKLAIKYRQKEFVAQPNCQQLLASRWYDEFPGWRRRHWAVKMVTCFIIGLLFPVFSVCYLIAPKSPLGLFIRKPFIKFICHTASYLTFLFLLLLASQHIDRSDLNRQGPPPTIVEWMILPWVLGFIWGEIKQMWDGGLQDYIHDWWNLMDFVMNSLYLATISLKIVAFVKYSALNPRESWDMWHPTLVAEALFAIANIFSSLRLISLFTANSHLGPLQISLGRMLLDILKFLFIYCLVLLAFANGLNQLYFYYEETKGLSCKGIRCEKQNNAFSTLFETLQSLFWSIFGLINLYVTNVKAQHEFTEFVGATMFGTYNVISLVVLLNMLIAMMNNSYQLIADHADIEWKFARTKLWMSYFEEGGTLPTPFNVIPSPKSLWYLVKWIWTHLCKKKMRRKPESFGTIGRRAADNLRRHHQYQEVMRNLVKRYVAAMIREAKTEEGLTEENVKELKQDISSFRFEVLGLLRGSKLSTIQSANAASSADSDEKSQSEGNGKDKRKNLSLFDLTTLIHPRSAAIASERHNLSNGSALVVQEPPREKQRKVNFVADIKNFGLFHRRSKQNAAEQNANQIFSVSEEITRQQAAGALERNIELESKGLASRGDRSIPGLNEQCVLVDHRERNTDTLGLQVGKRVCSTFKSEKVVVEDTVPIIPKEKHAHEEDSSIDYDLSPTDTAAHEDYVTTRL

[2] = target: DNA dC->dU-editing enzyme APOBEC-3A (Homo sapiens, UniProt P31941); assay: Dose Response confirmation of small molecule APOBEC3A DNA Deaminase Inhibitors via a fluorescence-based single-stranded DNA deaminase assay. [Related pubchem assays (depositor defined):AID493011, AID493024]; format: functional
Chain of DNA dC->dU-editing enzyme APOBEC-3A (P31941 whole entry): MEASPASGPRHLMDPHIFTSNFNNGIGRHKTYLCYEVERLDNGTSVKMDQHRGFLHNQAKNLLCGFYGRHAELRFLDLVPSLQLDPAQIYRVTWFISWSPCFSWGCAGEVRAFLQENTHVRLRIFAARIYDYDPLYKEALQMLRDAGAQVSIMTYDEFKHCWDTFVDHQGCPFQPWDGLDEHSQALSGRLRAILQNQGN

[3] = target: DNA dC->dU-editing enzyme APOBEC-3G (Homo sapiens, UniProt Q9HC16); format: functional;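 also: Dose-response counterscreen measuring inhibition of APOBEC3G DNA deaminase activity, run while confirming APOBEC3A inhibitors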
Chain of DNA dC->dU-editing enzyme APOBEC-3G (Q9HC16 whole entry): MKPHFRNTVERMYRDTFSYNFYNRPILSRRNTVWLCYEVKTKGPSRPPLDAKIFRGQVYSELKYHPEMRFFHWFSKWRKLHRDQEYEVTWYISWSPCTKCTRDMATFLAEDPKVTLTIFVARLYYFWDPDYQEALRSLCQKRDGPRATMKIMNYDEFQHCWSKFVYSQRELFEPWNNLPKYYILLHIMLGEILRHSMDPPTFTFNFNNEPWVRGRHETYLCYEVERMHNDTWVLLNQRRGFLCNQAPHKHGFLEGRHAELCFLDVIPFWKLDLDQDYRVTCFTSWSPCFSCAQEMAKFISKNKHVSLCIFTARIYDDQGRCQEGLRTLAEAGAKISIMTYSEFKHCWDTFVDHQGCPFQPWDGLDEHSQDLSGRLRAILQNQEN

Nonstructural protein 1 = Nonstructural protein 1 (Influenza A virus, UniProt Q194T2); format: functional, Influenza A virus (A/California/07/2009(H1N1))
Chain of Nonstructural protein 1 (Q194T2 whole entry, the tested form may be a part): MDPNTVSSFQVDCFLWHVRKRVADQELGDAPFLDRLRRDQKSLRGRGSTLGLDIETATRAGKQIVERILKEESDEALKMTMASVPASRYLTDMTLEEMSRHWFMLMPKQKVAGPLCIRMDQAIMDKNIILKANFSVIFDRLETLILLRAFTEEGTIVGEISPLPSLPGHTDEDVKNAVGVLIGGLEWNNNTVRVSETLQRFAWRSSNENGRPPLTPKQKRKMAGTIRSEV

[4] = target: T2, Carboxy-terminal domain RNA polymerase II polypeptide A small phosphatase 1 (Homo sapiens, UniProt Q9GZU7); assay: inhibitors of CTDSP1, concentration-response testing, biochemical assay, absorbance-based, actives from ultra-high-throughput screening (AID 540297); format: functional
T2 sequence (Q9GZU7 whole entry): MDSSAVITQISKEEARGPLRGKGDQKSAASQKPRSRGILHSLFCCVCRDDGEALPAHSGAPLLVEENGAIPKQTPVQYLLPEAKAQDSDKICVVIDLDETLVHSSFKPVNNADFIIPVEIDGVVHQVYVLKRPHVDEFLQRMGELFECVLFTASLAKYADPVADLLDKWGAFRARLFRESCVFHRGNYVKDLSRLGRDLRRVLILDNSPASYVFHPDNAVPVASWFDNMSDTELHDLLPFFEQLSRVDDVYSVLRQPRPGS

Protein skinhead-1 = target: T3, Protein skinhead-1 (Caenorhabditis elegans, UniProt P34707); format: functional
T3 sequence (P34707 whole entry): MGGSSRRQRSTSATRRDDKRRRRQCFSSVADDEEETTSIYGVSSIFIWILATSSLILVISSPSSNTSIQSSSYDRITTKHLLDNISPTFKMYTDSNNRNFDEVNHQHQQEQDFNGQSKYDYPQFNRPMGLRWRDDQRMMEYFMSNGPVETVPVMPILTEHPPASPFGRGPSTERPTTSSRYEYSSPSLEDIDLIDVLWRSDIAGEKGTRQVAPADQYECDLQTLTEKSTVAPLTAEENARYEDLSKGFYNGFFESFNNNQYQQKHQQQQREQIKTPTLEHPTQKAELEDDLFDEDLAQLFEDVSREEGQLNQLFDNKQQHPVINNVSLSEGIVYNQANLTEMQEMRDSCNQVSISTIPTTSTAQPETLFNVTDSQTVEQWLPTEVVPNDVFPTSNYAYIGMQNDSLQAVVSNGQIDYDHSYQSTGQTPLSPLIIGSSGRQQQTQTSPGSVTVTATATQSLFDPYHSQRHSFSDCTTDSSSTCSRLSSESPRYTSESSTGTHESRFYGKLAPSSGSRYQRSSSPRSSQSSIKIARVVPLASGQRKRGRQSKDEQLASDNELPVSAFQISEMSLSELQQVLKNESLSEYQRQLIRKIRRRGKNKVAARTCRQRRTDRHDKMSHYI

Cytochrome P450 2C9 = Cytochrome P450 2C9 (Homo sapiens, UniProt P11712)
Chain of Cytochrome P450 2C9 (P11712 whole entry): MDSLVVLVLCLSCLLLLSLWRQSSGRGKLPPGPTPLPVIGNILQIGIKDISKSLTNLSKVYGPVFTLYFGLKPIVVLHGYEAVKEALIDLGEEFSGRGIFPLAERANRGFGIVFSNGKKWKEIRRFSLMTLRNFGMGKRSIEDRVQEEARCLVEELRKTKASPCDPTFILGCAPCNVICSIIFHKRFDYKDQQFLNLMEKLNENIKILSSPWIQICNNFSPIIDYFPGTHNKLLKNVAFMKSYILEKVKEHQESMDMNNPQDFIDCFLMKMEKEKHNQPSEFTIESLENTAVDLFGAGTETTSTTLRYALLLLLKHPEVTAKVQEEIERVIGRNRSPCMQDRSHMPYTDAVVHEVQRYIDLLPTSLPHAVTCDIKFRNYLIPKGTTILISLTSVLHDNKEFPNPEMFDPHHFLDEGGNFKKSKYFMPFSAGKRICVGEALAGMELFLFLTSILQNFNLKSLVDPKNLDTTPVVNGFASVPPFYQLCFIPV

[5] = THP-1 cell cytotoxicity, dose response, cytotoxicity control for non-replicating M. tuberculosis project (AID 489025); format: functional
[6] = Vero E6 cell cytotoxicity, dose response, cytotoxicity control for non-replicating M. tuberculosis project, secondary assay (AID 492998); format: functional, VeroE6; conditions: Vero C1008
cells [7] = format: functional
[8] = target: Dual specificity tyrosine-phosphorylation-regulated kinase 1A (Rattus norvegicus, UniProt Q63470); format: biochemical, Homo sapiens
[9] = NIH-3T3 fibroblast cytotoxicity, dose response, cytotoxicity control, cell-based, fluorescence, Alamar Blue, secondary assay (AID 2327); format: functional;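 also: NIH-3T3 mouse fibroblasts cultured with fluconazole at 8 µg/mL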
[10] = C. albicans growth with fluconazole, confirmation, fluorescence, retest (AID 2467); format: functional, cell-based
[11] = inhibitors of intracellular T. cruzi replication, confirmation, NIH3T3 host cells, beta-gal luminescence (AID 2044); format: functional, cell-based;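 also: intracellular parasites grown in NIH/3T3 mouse fibroblasts as host cells; luminescent beta-galactosidase reporter signal from transgenic T. cruzi replicating inside host cells; inhibitors lower the luminescence signal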
[12] = cytotoxicity toward NIH3T3 fibroblasts, dose response, counter-screen, cell-based, ATP luminescence, mouse fibroblasts (AID 2010); format: functional;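 also: cells exposed to compound for about 90 hours before reading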
[13] = target: T4, Microphthalmia-associated transcription factor (Homo sapiens, UniProt O75030); assay: TRPM1 promoter luciferase signal decrease, dose response, MITF inhibitor project, cell-based, SK-MEL-5, cherry-picked, set 3 (AID 493073); format: functional
T4 sequence (O75030 whole entry): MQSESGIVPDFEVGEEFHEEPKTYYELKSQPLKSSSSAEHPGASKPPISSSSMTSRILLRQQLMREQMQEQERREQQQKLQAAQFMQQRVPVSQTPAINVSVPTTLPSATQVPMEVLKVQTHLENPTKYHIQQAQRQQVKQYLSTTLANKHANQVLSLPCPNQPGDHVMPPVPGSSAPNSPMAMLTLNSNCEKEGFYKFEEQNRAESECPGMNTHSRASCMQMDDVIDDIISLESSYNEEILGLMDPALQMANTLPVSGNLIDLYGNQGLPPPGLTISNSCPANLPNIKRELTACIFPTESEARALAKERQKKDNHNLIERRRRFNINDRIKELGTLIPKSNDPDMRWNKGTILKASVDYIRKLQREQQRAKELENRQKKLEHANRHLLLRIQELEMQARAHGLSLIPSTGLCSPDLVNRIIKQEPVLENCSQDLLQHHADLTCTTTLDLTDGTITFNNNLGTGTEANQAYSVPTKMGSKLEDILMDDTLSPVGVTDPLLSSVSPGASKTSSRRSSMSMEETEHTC

INS1 = assay: beta cell apoptosis inhibitors, cytokine rescue, dose response, luminescence, retest (AID 449756); format: functional, cell-based; conditions: Rattus norvegicus;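 also: cell death triggered by IL-1 beta plus TNF-alpha plus IFN-gamma mixture; protective hits raise ATP signal compared with cytokine alone wells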
cells [14] = format: functional, cell-based
[15] = Luminescence Cell-Based Dose Retest to Confirm Inhibitors of Cancer Stem Cells. [Related pubchem assays (depositor defined):AID2717, AID2721]; format: functional; conditions: Homo sapiens
[16] = cytotoxicity in HEK-293T cells, dose response, cytotoxicity control for TCR NF-kB inhibitor project, luminescence, T-cell screen hits (AID 489026); format: functional, cell-based;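 also: cells exposed to compound about 14 hours before the viability readout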
[17] = target: Heat shock protein HSP 90-alpha (Homo sapiens, UniProt P07900); format: functional, organism-based
[18] = Shn3 3'UTR reporter inhibitors, dose response, cell-based, Clone20 osteoblasts, firefly luciferase, cherry-picked (AID 624132); format: functional;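 also: firefly luciferase luminescence from reporter carrying the Shn3 3'UTR in osteoblasts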
[19] = control 3'UTR Renilla luciferase suppression, dose response, counter-screen for Shn3 inhibitor project, cell-based, Clone20-Shn3RL, cherry-picked (AID 624133); format: functional

## CCN(CC)CC(=O)Nc1ccc(Cl)cc1C(=O)c1ccccc1
[1]
  EC50: 2.37 µM (active)

## CN(C)CCCN(Cc1cc2cc3c(cc2nc1O)OCO3)C(S)=NCc1ccco1
[1]
  EC50: 0.421 µM (active)

## CCSCc1nnc(SCC(=O)Nc2ccc(OC)cc2)n1C
[2]
  IC50: 3.08 µM (active)
[3]
  IC50: 4.91 µM (active)

## Cc1c(N/N=C2/C(=O)NC(=O)N(Cc3ccccc3)C2=O)c(=O)n(-c2ccccc2)n1C
Nonstructural protein 1
  IC50: 3.31 µM (active)

## O=C(Nc1ccc(Br)cc1Cl)c1cnccn1
[4]
  IC50: 4.67 µM (active)
Protein skinhead-1
  IC50: > 100 µM (inactive)

## CCOc1ccc(NC(=O)c2oc3ccccc3c2NC(=O)CC)cc1
Cytochrome P450 2C9
  AC50: inconclusive

## COc1ccccc1N(C(=O)c1snc(C(N)=O)c1N)C(C(=O)NC1CCCC1)c1ccc2ncccc2c1 (stereo not given)
[1]
  EC50: 2.66 µM (active)

## O=C(NCCN1CCOCC1)c1cc2sccc2n1Cc1ccc(Cl)cc1
Nonstructural protein 1
  IC50: > 100 µM (active)

## CC(=O)N(C[C@@H](C)C(=O)O)c1c(I)cc(I)c(N)c1I
Cytochrome P450 2C9
  AC50: inconclusive

## O=[N+]([O-])c1ccccc1/C=C/C=N/Nc1nc(N2CCCCC2)nc(N2CCCCC2)n1
[2]
  IC50: 1.14 µM (active)
[3]
  IC50: 0.814 µM (active)

## Cc1ccc(-c2cc(C(=O)N/N=C/c3ccc(Cl)cc3)[nH]n2)o1
[4]
  IC50: 9.23 µM (active)

## O=C(NCCc1ccccc1)c1cc2ncc(Br)cn2n1
[2]
  IC50: 12.8 µM (active)
[3]
  IC50: > 100 µM (inactive)

## Cc1nc([N+](=O)[O-])c(Br)n1CC(=O)c1ccc(Cl)cc1
[5]
  CC50: 17.4 µM (active)
[6]
  CC50: 13 µM (active)
Cells [7]
  IC50: 6.88 µM (active)

## CCOc1cc(/C=C2\SC(N3CCCCC3)=NC2=O)ccc1O
[8]
  AC50: 0.678 µM (active)

## Oc1ccc2ccc3[nH]cnc3c2c1
[8]
  AC50: 2.47 µM (active)

## CCc1noc(C)c1C(=O)NNC(=O)c1cc(OC)c(OC)c(OC)c1
[2]
  IC50: 21.3 µM (active)
[3]
  IC50: 13.9 µM (active)

## O=C(N/N=C/c1cc([N+](=O)[O-])ccc1O)C1CCCCC1
[5]
  CC50: 21.4 µM (active)
[6]
  CC50: > 20 µM (active)
Cells [7]
  IC50: 17.9 µM (active)

## CC(=O)OC1C2CCC1C([N+]1(C)CCCCC1)CC2 (stereo not given)
[2]
  IC50: 2.69 µM (active)
[3]
  IC50: 3.15 µM (active)
[4]
  IC50: 4.51 µM (active)

## CCCOCc1ccc(O)c2ncccc12
[9]
  EC50: 16.2 µM (inconclusive)
[10]
  EC50: 2.75 µM (active)
[11]
  EC50: 2.5 µM (active)
[12]
  EC50: 8.03 µM (active)
[13]
  AC50: 15.5 µM (active)
INS1
  AC50: 3.29 µM (active)

## CCCCN(C(=O)Cn1ncc(Cl)c(Cl)c1=O)c1c(N)n(CC(C)C)c(=O)[nH]c1=O
[4]
  IC50: 5.74 µM (active)

## O=C(Nc1cccc2nsnc12)c1ccc2c(c1)OCO2
[8]
  AC50: 11.7 µM (active)

## COc1ccc(CN2CCN(Cc3ccc(C(F)(F)F)cc3)CC2)c(OC)c1
[1]
  EC50: 2.66 µM (active)

## O=c1oc2cc([N+](=O)[O-])ccc2nc1/C=C(\O)c1cccc(Br)c1
Cells [14]
  EC50: > 350 µM (not active)

## CC(=O)Nc1cccc(-c2cnc3ccccc3n2)c1
[8]
  AC50: 6.1 µM (active)

## COc1cc(Nc2ccc(C)cc2)c([N+](=O)[O-])nc1[N+](=O)[O-]
[11]
  EC50: 3.02 µM (active)
[12]
  EC50: > 60 µM (not active)
[15]
  AC50: 3.51 µM (active)
[16]
  IC50: > 80 µM (inactive)

## CCN1CCN(c2ccc(S(=O)(=O)N3CCCCC3)cc2NC(=O)/C=C/c2ccc(F)cc2)CC1
[2]
  IC50: 4.6 µM (active)
[3]
  IC50: 7.23 µM (active)

## N=C(Nc1nc(-c2ccccn2)cc2ccccc12)c1ccccn1
Nonstructural protein 1
  IC50: 39.6 µM (active)
[17]
  AC50: 2.76 µM (active)
[18]
  AC50: < 0.26 µM (active)
[19]
  AC50: < 0.26 µM (active)

## C[C@@H](Cc1cccc(C(F)(F)F)c1)NCCOC(=O)c1ccccc1
Cytochrome P450 2C9
  AC50: inconclusive

## COc1ccc(N(C(=O)c2ccccc2C)S(=O)(=O)c2cccs2)cc1
[15]
  AC50: 0.17 µM (active)
[16]
  IC50: > 80 µM (inactive)

## CCC1CCCCN1Cc1nc2c(c(=O)n(C)c(=O)n2C)n1Cc1ccccc1 (stereo not given)
[1]
  EC50: 3.76 µM (active)

## Cc1cc2c(cc1S(N)(=O)=O)S(=O)(=O)CCC2
Cytochrome P450 2C9
  AC50: inconclusive
